Assay results from the NIST ThermoML archive (doi:10.1016/j.jct.2016.05.015).
± gives the expanded uncertainty stated by the source.

Assay: xn = mol fraction of the nth substance listed
Conditions: 100 kPa, Liquid; for viscosity: Capillary tube (Ostwald / Ubbelohde) method; for speed of sound: Frequency=2 MHz, Linear variable-path acoustic interferometer; for mass density: Vibrating tube method

Nc1cccc(Cl)c1 [3-chlorobenzenamine] + Brc1ccccc1
viscosity (303.15 K, x1 = 0.0902): 1.364 ± 0.1 mPa·s
viscosity (303.15 K, x1 = 0.1842): 1.741 ± 0.1 mPa·s
viscosity (303.15 K, x1 = 0.2789): 2.101 ± 0.1 mPa·s
viscosity (303.15 K, x1 = 0.3759): 2.454 ± 0.1 mPa·s
viscosity (303.15 K, x1 = 0.4745): 2.795 ± 0.1 mPa·s
viscosity (303.15 K, x1 = 0.5763): 3.131 ± 0.1 mPa·s
viscosity (303.15 K, x1 = 0.6782): 3.446 ± 0.1 mPa·s
viscosity (303.15 K, x1 = 0.7852): 3.752 ± 0.1 mPa·s
viscosity (303.15 K, x1 = 0.8914): 4.022 ± 0.1 mPa·s
viscosity (303.15 K, x1 = 1): 4.255 ± 0.1 mPa·s
speed of sound (303.15 K, x1 = 0.0902): 1162.5 ± 7.1 m/s
speed of sound (303.15 K, x1 = 0.1842): 1191.5 ± 7.3 m/s
speed of sound (303.15 K, x1 = 0.2789): 1222.1 ± 7.5 m/s
speed of sound (303.15 K, x1 = 0.3759): 1255.1 ± 7.7 m/s
speed of sound (303.15 K, x1 = 0.4745): 1290.5 ± 7.9 m/s
speed of sound (303.15 K, x1 = 0.5763): 1329.2 ± 8.1 m/s
speed of sound (303.15 K, x1 = 0.6782): 1370.2 ± 8.4 m/s
speed of sound (303.15 K, x1 = 0.7852): 1416 ± 8.6 m/s
speed of sound (303.15 K, x1 = 0.8914): 1464.5 ± 8.9 m/s
speed of sound (303.15 K, x1 = 1): 1517.5 ± 9.3 m/s
mass density (303.15 K, x1 = 0.0902): 1457.14 ± 20 kg/m3
mass density (303.15 K, x1 = 0.1842): 1431.71 ± 20 kg/m3
mass density (303.15 K, x1 = 0.2789): 1406 ± 20 kg/m3
mass density (303.15 K, x1 = 0.3759): 1379.47 ± 20 kg/m3
mass density (303.15 K, x1 = 0.4745): 1352.34 ± 20 kg/m3
mass density (303.15 K, x1 = 0.5763): 1324.09 ± 20 kg/m3
mass density (303.15 K, x1 = 0.6782): 1295.62 ± 20 kg/m3
mass density (303.15 K, x1 = 0.7852): 1265.62 ± 20 kg/m3
mass density (303.15 K, x1 = 0.8914): 1235.79 ± 20 kg/m3
mass density (303.15 K, x1 = 1): 1205.32 ± 20 kg/m3
viscosity (308.15 K, x1 = 0.0902): 1.307 ± 0.1 mPa·s
viscosity (308.15 K, x1 = 0.1842): 1.65 ± 0.1 mPa·s
viscosity (308.15 K, x1 = 0.2789): 1.976 ± 0.1 mPa·s
viscosity (308.15 K, x1 = 0.3759): 2.291 ± 0.1 mPa·s
viscosity (308.15 K, x1 = 0.4745): 2.593 ± 0.1 mPa·s
viscosity (308.15 K, x1 = 0.5763): 2.888 ± 0.1 mPa·s
viscosity (308.15 K, x1 = 0.6782): 3.166 ± 0.1 mPa·s
viscosity (308.15 K, x1 = 0.7852): 3.427 ± 0.1 mPa·s
viscosity (308.15 K, x1 = 0.8914): 3.657 ± 0.1 mPa·s
viscosity (308.15 K, x1 = 1): 3.842 ± 0.1 mPa·s
speed of sound (308.15 K, x1 = 0.0902): 1148.3 ± 7 m/s
speed of sound (308.15 K, x1 = 0.1842): 1177.1 ± 7.2 m/s
speed of sound (308.15 K, x1 = 0.2789): 1207.4 ± 7.4 m/s
speed of sound (308.15 K, x1 = 0.3759): 1240.2 ± 7.6 m/s
speed of sound (308.15 K, x1 = 0.4745): 1275.4 ± 7.8 m/s
speed of sound (308.15 K, x1 = 0.5763): 1313.8 ± 8 m/s
speed of sound (308.15 K, x1 = 0.6782): 1354.7 ± 8.3 m/s
speed of sound (308.15 K, x1 = 0.7852): 1400.3 ± 8.6 m/s
speed of sound (308.15 K, x1 = 0.8914): 1448.6 ± 8.8 m/s
speed of sound (308.15 K, x1 = 1): 1501.2 ± 9.2 m/s
mass density (308.15 K, x1 = 0.0902): 1451.19 ± 20 kg/m3
mass density (308.15 K, x1 = 0.1842): 1425.93 ± 20 kg/m3
mass density (308.15 K, x1 = 0.2789): 1400.36 ± 20 kg/m3
mass density (308.15 K, x1 = 0.3759): 1373.99 ± 20 kg/m3
mass density (308.15 K, x1 = 0.4745): 1346.99 ± 20 kg/m3
mass density (308.15 K, x1 = 0.5763): 1318.91 ± 20 kg/m3
mass density (308.15 K, x1 = 0.6782): 1290.63 ± 20 kg/m3
mass density (308.15 K, x1 = 0.7852): 1260.78 ± 20 kg/m3
mass density (308.15 K, x1 = 0.8914): 1231.09 ± 20 kg/m3
mass density (308.15 K, x1 = 1): 1200.75 ± 20 kg/m3
viscosity (313.15 K, x1 = 0.0902): 1.223 ± 0.1 mPa·s
viscosity (313.15 K, x1 = 0.1842): 1.533 ± 0.1 mPa·s
viscosity (313.15 K, x1 = 0.2789): 1.826 ± 0.1 mPa·s
viscosity (313.15 K, x1 = 0.3759): 2.104 ± 0.1 mPa·s
viscosity (313.15 K, x1 = 0.4745): 2.372 ± 0.1 mPa·s
viscosity (313.15 K, x1 = 0.5763): 2.632 ± 0.1 mPa·s
viscosity (313.15 K, x1 = 0.6782): 2.876 ± 0.1 mPa·s
viscosity (313.15 K, x1 = 0.7852): 3.105 ± 0.1 mPa·s
viscosity (313.15 K, x1 = 0.8914): 3.293 ± 0.1 mPa·s
viscosity (313.15 K, x1 = 1): 3.43 ± 0.1 mPa·s
speed of sound (313.15 K, x1 = 0.0902): 1134.9 ± 6.9 m/s
speed of sound (313.15 K, x1 = 0.1842): 1163 ± 7.1 m/s
speed of sound (313.15 K, x1 = 0.2789): 1192.8 ± 7.3 m/s
speed of sound (313.15 K, x1 = 0.3759): 1224.9 ± 7.5 m/s
speed of sound (313.15 K, x1 = 0.4745): 1259.3 ± 7.7 m/s
speed of sound (313.15 K, x1 = 0.5763): 1296.9 ± 7.9 m/s
speed of sound (313.15 K, x1 = 0.6782): 1336.9 ± 8.2 m/s
speed of sound (313.15 K, x1 = 0.7852): 1381.6 ± 8.4 m/s
speed of sound (313.15 K, x1 = 0.8914): 1428.7 ± 8.7 m/s
speed of sound (313.15 K, x1 = 1): 1480.3 ± 9 m/s
mass density (313.15 K, x1 = 0.0902): 1444.19 ± 20 kg/m3
mass density (313.15 K, x1 = 0.1842): 1419.21 ± 20 kg/m3
mass density (313.15 K, x1 = 0.2789): 1393.88 ± 20 kg/m3
mass density (313.15 K, x1 = 0.3759): 1367.75 ± 20 kg/m3
mass density (313.15 K, x1 = 0.4745): 1340.99 ± 20 kg/m3
mass density (313.15 K, x1 = 0.5763): 1313.18 ± 20 kg/m3
mass density (313.15 K, x1 = 0.6782): 1285.16 ± 20 kg/m3
mass density (313.15 K, x1 = 0.7852): 1255.6 ± 20 kg/m3
mass density (313.15 K, x1 = 0.8914): 1226.16 ± 20 kg/m3
mass density (313.15 K, x1 = 1): 1196.02 ± 20 kg/m3
viscosity (318.15 K, x1 = 0.0902): 1.155 ± 0.1 mPa·s
viscosity (318.15 K, x1 = 0.1842): 1.437 ± 0.1 mPa·s
viscosity (318.15 K, x1 = 0.2789): 1.692 ± 0.1 mPa·s
viscosity (318.15 K, x1 = 0.3759): 1.934 ± 0.1 mPa·s
viscosity (318.15 K, x1 = 0.4745): 2.165 ± 0.1 mPa·s
viscosity (318.15 K, x1 = 0.5763): 2.388 ± 0.1 mPa·s
viscosity (318.15 K, x1 = 0.6782): 2.595 ± 0.1 mPa·s
viscosity (318.15 K, x1 = 0.7852): 2.786 ± 0.1 mPa·s
viscosity (318.15 K, x1 = 0.8914): 2.934 ± 0.1 mPa·s
viscosity (318.15 K, x1 = 1): 3.022 ± 0.1 mPa·s
speed of sound (318.15 K, x1 = 0.0902): 1124.6 ± 6.9 m/s
speed of sound (318.15 K, x1 = 0.1842): 1152.3 ± 7 m/s
speed of sound (318.15 K, x1 = 0.2789): 1181.7 ± 7.2 m/s
speed of sound (318.15 K, x1 = 0.3759): 1213.3 ± 7.4 m/s
speed of sound (318.15 K, x1 = 0.4745): 1247.3 ± 7.6 m/s
speed of sound (318.15 K, x1 = 0.5763): 1284.5 ± 7.8 m/s
speed of sound (318.15 K, x1 = 0.6782): 1324 ± 8.1 m/s
speed of sound (318.15 K, x1 = 0.7852): 1368 ± 8.3 m/s
speed of sound (318.15 K, x1 = 0.8914): 1414.5 ± 8.6 m/s
speed of sound (318.15 K, x1 = 1): 1464.8 ± 8.9 m/s
mass density (318.15 K, x1 = 0.0902): 1437.77 ± 20 kg/m3
mass density (318.15 K, x1 = 0.1842): 1412.99 ± 20 kg/m3
mass density (318.15 K, x1 = 0.2789): 1387.82 ± 20 kg/m3
mass density (318.15 K, x1 = 0.3759): 1361.85 ± 20 kg/m3
mass density (318.15 K, x1 = 0.4745): 1335.26 ± 20 kg/m3
mass density (318.15 K, x1 = 0.5763): 1307.62 ± 20 kg/m3
mass density (318.15 K, x1 = 0.6782): 1279.81 ± 20 kg/m3
mass density (318.15 K, x1 = 0.7852): 1250.46 ± 20 kg/m3
mass density (318.15 K, x1 = 0.8914): 1221.22 ± 20 kg/m3
mass density (318.15 K, x1 = 1): 1191.25 ± 20 kg/m3
